Assay results as given in patent publication US5756505A, “N-acylpiperazine derivative, antibacterial drug and anti-ulcer drug” (Shiseido Co., Ltd., priority 1995, dated 1998).

How the values were obtained:
[1] = system: acid secretion; assay: VOL, TAO: Acid Secretion Inhibition Test In Vivo; design: species or system rat (male Crj:Donryu); settings: rat, 100 mg/kg oral, histamine-stimulated, pylorus ligated
Description: VOL, TAO: Acid Secretion Inhibition Test In Vivo
Inhibitory effect on acid secretion in vivo is confirmed.
Male Crj:Donryu rats (7-week-old) were fasted overnight but allowed free access to water. In each group, 8 to 10 of these rats were used under urethane anesthesia (1.25 g/kg). The sample compound dissolved or suspended in an aqueous solution of 0.5% sodium carboxymethylcellulose or 0.05% Tween 80 was orally administered (100 mg/10 ml/kg). 30 minutes later, the abdomen of each was incised and the pylorus was ligated. 30 minutes after the ligation, 30 mg/kg of histamine dissolved in physiological saline were subcutaneously administered and, 3 hours thereafter, the rat was sacrificed with carbon dioxide. Immediately thereafter, each stomach was removed and the gastric contents were collected and each volume was determined. The total acid output was determined by titration of the gastric juice with 0.1N NaOH.
With respect to the gastric juice volume (VOL) and the total acid output (TAO), the effects obtained when 100 mg/kg of the sample compound had been administered were expressed as their respective inhibitory rates (%) as follows:
each inhibitory rate (%)=[1-(value in sample group/value in control group)]×100

[2] = system: isolated gastric fundic gland; assay: CAP: Acid Secretion Inhibition Test In Vitro ([14C]-aminopyrine uptake); format: cell-based, rabbit (male Japanese White); settings: final concentration 10^-5 M, histamine 10^-5 M, rabbit gastric fundic gland
Description: CAP: Acid Secretion Inhibition Test In Vitro
The acid secretion inhibitory activity in a cell level is studied. It can also be used for studying the mechanism of the effect. […]
ii-a) Preparation of isolated gastric fundus gland suspension
First, an isolated gastric fundic gland sample was prepared. Namely, a male Japanese White rabbit (2.5 to 3 kg) was anesthetized to death with Nembutal™ and then the abdomen was incised. Immediately thereafter, the stomach was removed and, after its pyloric and cardiac antrum were severed, incised along its greater curvature into two sheets. The gastric contents adhering to the mucosal surface was washed out with ice-cooled PBS (-) and then carefully washed therein. The gastric wall was spread on a cork board with its mucosal surface facing up and the feed and mucus thereon were completely removed with sterile gauze. The mucosa was separated therefrom by a spatula and then collected in ice-cooled PBS (-). After being washed twice with PBS (-), the mucosa was minced into 2-3mm^3 pieces by scissors. These pieces were further washed twice with a nutrient solution. The nutrient solution comprises 132.4 mM of NaCl, 5.4 mM of KCl, 5 mM of Na2 HPO4 ·12H2 O, 1 mM of NaH2 PO4 ·2H2 O, 1.2 mM of MgSO4, 1 mM of CaCl2, 25 mM of HEPES, 2mg/ml of glucose, and 1 mg/ml of BSA. Into 70 ml of the nutrient solution containing 1 mg/ml of collagenase, minced mucosal pieces were dispersed and intensely stirred in a conical flask with a stirrer at 37° C. for 40 to 60 minutes. During this period, 100% O2 was sprayed on the nutrient solution surface and the pH was appropriately measured such that it was immediately adjusted to pH 7.4, when the value was therebelow, with a base. The nutrient solution was added to the reaction solution so as to attain the total amount of about 200 ml. After being filtered through a mesh, the suspension was divisionally introduced into 50 ml centrifuge tubes and left for 15 minutes such that gastric fundic gland was deposited. The supernatant was repeatedly removed by an aspirator, dispersed in the nutrient solution, and then left such that the gastric fundic gland was washed three times. At this time, without using a pipette, the suspension was alternately introduced into two centrifuge tubes so as to effect dispersion. The number of cells was counted under microscope and adjusted to 1.6×10^6 cells/ml. […]
ii-b) [^14 C]-aminopyrine uptake test
Then, [^14 C]-aminopyrine uptake test was performed. After an Eppendorf tube was weighed, 10 μl (final concentration: 10^-5 M) of histamine dissolved in the above-mentioned nutrient solution, 10 μl (final concentration: 10^-5 M) of the test compound dissolved in DMSO, and 10 μl (final concentration: 0.05 μCi/ml) of [^14 C]-aminopyrine diluted with the nutrient solution were introduced therein and then 970 μl of the isolated gastric fundic gland suspension prepared above were added thereto. Subsequently, this mixture was shaken at 37° C. for 40 minutes at 125 cycles/minute. After being centrifuged for 30 minutes 200 μl of its supernatant was collected into a mini-vial, while the rest was removed by an aspirator. The gland pellet was completely dried as the tube with its lid being opened was kept for one night in a drying oven at 80° C. and then the lid was closed and the weight was determined at room temperature. Then 100 μl of 1N KOH were added thereto and the tube with its lid being closed was treated at 60° C. for 1 to 2 hours so as to dissolve the pellet. Then, the contents thereof were transferred to a mini-vial. Into the mini-vial containing the supernatant or gland pellet, 4 ml of Atomlite™ were added and then the radioactivity was measured by a liquid scintillation counter. Here, after the radioactivity of the gland pellet was corrected by using a sample in which 20 mM of NaSCN were added so as to cancel the hydrogen ion concentration gradient, the integration ratio of aminopyrine specifically trapped by the gland pellet was calculated. […]

[3] = system: Helicobacter pyroli; assay: AHP: Antibacterial Activity Test Against Helicobacter pyroli; format: cell-based, Helicobacter pyroli NCTC 11637; settings: Helicobacter, NCTC11637, 168 h; H. pyroli NCTC 11637, agar dilution, 7 days; read-out: AHP: minimum inhibitory concentration (MIC)
Description: AHP: Antibacterial […] Against Helicobacter pyroli i)Meaning The minimum inhibitory concentration (MIC) against Helicobacter pyroli (microaerophilic gram-negative bacterium which is supposed to deeply involve in pathogenesis, relapse, and recrudescence of ulcer, referred to as "HP" in the following) is measured so as to find out compounds which have antimicrobial activity against Helicobacter pyroli. ii)Method MICs were determined by the agar dilution method. […] Grown colonies were transfered to the same plate and cultured for 3 days under the same condition. […] A 1,000 μg/ml solution of the sample compound containing DMSO not more than 25% was […] diluted 2-fold in sterile purified water. 100 μl volume from each dilution was mixed thoroughly with 900 μl of brucella agar supplemented with 5% horse blood and solidified in a 24 well micro plate. 10 μl of the bacterial suspension (about 10^3 cfu) was inoculated on this plate and cultured for 7 days under the same condition as that of preculture.

MIC [3] | Structure (SMILES) | TAO: total acid output inhibitory rate [1] | VOL: gastric juice volume inhibitory rate [1] | inhibition at 10 µM ([2]; Oryctolagus cuniculus, read-out: CAP: acid secretion inhibitory rate) | CAP: acid secretion inhibitory rate [2]
25 µg/mL | CC(C)Cc1cc(C(=O)N2CCN(CC(C)C)CC2)ccc1OCc1ccc(F)c(F)c1.Cl [Example 23, 1-[4-(3,4-difluorobenzyloxy)-3-isobutylbenzoyl]-4-isobutylpiperazine hydrochloride] | 9% | -9% | 99% | 
12.5 µg/mL | CC(C)Cc1cc(C(=O)N2CCN(CC(C)C)CC2)ccc1OCc1ccc(F)cc1.O=C(O)C(=O)O [Example 25, 1-[4-(4-fluorobenzyloxy)-3-isobutylbenzoyl]-4-isobutylpiperazine oxalate] | 47% | 19% |  | 95%
